Measured values taken from patent US8557265B2, “Use of a synergistic composition as a therapeutic agent of disinfectant” (Bode Chemie GmbH, priority 2007, dated 2013).

Columns and labels:
Type in all cases: cell-based
[1] = test system: genomic DNA and extrachromosomal plasmid (Yep351) of recombinant Escherichia coli strain; experiment: Breakdown of genomic DNA and extrachromosomal plasmid DNA in microorganisms, gel electrophoresis (FIG. 1); conditions: E. coli suspension, lysozyme 5 minutes, then 5 minutes with 5 μl of solution
Protocol: A recombinant Escherichia coli strain with an extrachromosomal plasmid (Yep351) was cultivated overnight in LB amp medium. Every 5 μl of this E. coli suspension were treated with 5 μl of lysozyme solution (1 mg/ml) for 5 minutes and then incubated for another 5 minutes with 5 μl of the indicated solutions (1-5). After adding bromophenol blue, the samples were placed in the gel bags and the DNA molecules were separated by electrophoresis.

[2] = test system: Bacillus subtilis; experiment: Test for antimicrobial action, colony count after plating; conditions: cell count of 106 in 50 μl mixed 1:1; incubation time 2 minutes; plated, 37° C.
Protocol: (§1) Fresh cultures of the indicated microorganisms were adjusted to a cell count of […] in 50 μl and then mixed in a 1:1 ratio with 50 μl of water 70% ethanol or the invented agent (100 mM ascorbic acid, 10 mM FeCl3, and 0.5% SDS). After an incubation time of 2 minutes, the 100 μl batches with the bacteria were plated out on corresponding growth dishes. After an incubation of 1-3 days at 28° C. (Saccharomyces cerevisiae and Candida parapsilosis) or 37° C. (Escherichia coli and Bacillus subtilis), the number of grown colonies was determined. In the batches with sterile water, all microorganisms survived.

[3] = test system: Escherichia coli; experiment: as above; conditions: cell count of 106 in 50 μl mixed 1:1; incubation time 2 minutes; plated, 37° C.
Protocol: as §1

[4] = test system: Candida parapsilosis; experiment: as above; conditions: cell count of 106 in 50 μl mixed 1:1; incubation time 2 minutes; plated, 28° C.
Protocol: as §1

[5] = test system: Saccharomyces cerevisiae; experiment: as above; conditions: cell count of 106 in 50 μl mixed 1:1; incubation time 2 minutes; plated, 28° C.
Protocol: as §1

CCO [70% ethanol, ethanol]
effect on DNA molecules in gel electrophoresis [1]: precipitation of the cell lysate and the DNA
number of grown colonies [2]: 0
number of grown colonies [3]: 0
number of grown colonies [4]: 0
number of grown colonies [5]: 0

CCCCCCCCCCCCOS(=O)(=O)[O-].[Na+] [sample 3, SDS]
effect on DNA molecules in gel electrophoresis [1]: lysis of the cells
